Measured values: US20260184663A1, “INDENE COMPOUNDS, PHARMACEUTICAL COMPOSITIONS THEREOF, AND THEIR THERAPEUTIC APPLICATIONS” (NucMito Pharmaceuticals co. Ltd., priority 2022, published 2026)

Assays:
Type in all cases: cell-based
[1] = tested on: alpha-smooth muscle actin (α-SMA); assay: Inhibition of TGF-β induced expression of alpha-smooth muscle actin (α-SMA) in CFSC cells (western blot); conditions: compound at 10 μM, TGF-β (10 ng/mL), 24 hours, band intensity vs TGF-β only
Method: The ability of a compound to inhabit the TGF-β induced expression of alpha-smooth muscle actin (α-SMA) was evaluated in CCl4-treated fat storing (CFSC) cells. α-SMA is considered as a reliable marker of hepatic stellate cell activation and a key biomarker for liver fibrosis.
CFSC cells maintained in a DMEM medium supplemented with 10% fetal bovine serum were seeded to 12-well culture dishes and grown to a confluence of 60-70% the next day. Culture was changed to a serum-free DMEM medium, and the cells were treated with a compound at 10 μM in the presence of TGF-β (10 ng/mL). The cells were incubated for another 24 hours. All culture was maintained at 37° C. in 5% carbon dioxide.
An NP-40 lysate solution (50 mM Tris (pH 7.4), 150 mM NaCl, 1% NP-40) with EDTA free cocktail added was used to lyse the cells on ice for 30 min. The lysate was collected and centrifuged at 4° C. for 10 min at 12,000 rpm. The pellet was discarded and the supernatant was transferred to a new tube. Cell lysates were loaded with 5× loading buffer and boiled for 10 min, resolved by 10% SDS-polyacrylamide gel electrophoresis (SDS-PAGE), and transferred to PVDF membrane. The membrane was blocked with 5% skim milk in Tris-buffered saline and TWEEN® 20 (TBST; 10 mM Tris-HCl (pH 8.0), 150 mM NaCl, 0.1% TWEEN® 20) for 1 h at room temperature and then incubated with α-SMA and β-actin antibodies overnight at 4° C. After washing twice with TBST, the membrane was probed with a horseradish […] anti-immunoglobulin (1:5000 dilution) for 1 h at room temperature. After two subsequent rinses in TBST, immunoreactive products were reacted with ECL and visualized by a UVP CHEMSTUDIO™ imaging system. The western blotting bands are quantitated using an ImageJ software. The percentage of inhibition was obtained by calculating the percentage decrease in the band intensity compared to the one treated with TGF-β only.
The results are summarized in Table 1, where A represents a value no less of 80% inhibition, B represents a value less than […] but no less than […], C represents a value less than 50% but no less than 30% inhibition, and D represents a value less than 30% inhibition with a compound at 10 μM.

[2] = tested on: MDA-MB-231 (breast cancer); assay: Antiproliferative activity (CCK-8 cell viability), MDA-MB-231; conditions: Homo sapiens, 72 h, read-out: Antiproliferative activity in cancerous cells, MDA-MB-231 (inhibition of cell growth); for inhibition at 3.3 µM: Compound concentration: 3.3 μM; for inhibition at 10 µM: Compound concentration: 10 μM
Summary of the method: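 In this CCK-8 viability assay, MDA-MB-231 cells maintained in Dulbecco's modified Eagle's medium containing 10% fetal bovine serum were placed in 96-well plates (2,000-5,000 cells/well) and treated with compound for 72 h at 37° C. A 4 h incubation with 10 μL CCK-8 followed, plates were read at 450 nm, and viability was expressed against DMSO vehicle wells across replicates.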

[3] = tested on: HepG2 (liver cancer); assay: Antiproliferative activity (CCK-8 cell viability), HepG2; conditions: Homo sapiens, 72 h, read-out: Antiproliferative activity in cancerous cells, HepG2 (inhibition of cell growth); for inhibition at 3.3 µM: Compound concentration: 3.3 μM; for inhibition at 10 µM: Compound concentration: 10 μM
Summary of the method: (§1)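 Cells were seeded at 2,000-5,000/well (HeLa in MEM, HepG2 and SW480 in DMEM, A549 in F-12K, all with 10% FBS) and treated with compound at 3.3, 10 or 30 μM for 72 h at 37° C. CCK-8 was added for 4 h, absorbance was read at 450 nm, and viability was expressed relative to DMSO-treated wells.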

[4] = tested on: SW480 (colon cancer); assay: Antiproliferative activity (CCK-8 cell viability), SW480; conditions: Homo sapiens, 72 h, read-out: Antiproliferative activity in cancerous cells, SW480 (inhibition of cell growth); for inhibition at 3.3 µM: Compound concentration: 3.3 μM; for inhibition at 10 µM: Compound concentration: 10 μM
Summary of the method: as §1

[5] = tested on: B16F10 (malignant melanoma); assay: Antiproliferative activity (CCK-8 cell viability), B16F10; conditions: Mus musculus, 72 h, read-out: Antiproliferative activity in cancerous cells, B16F10 (inhibition of cell growth); for inhibition at 3.3 µM: B16-F10, Compound concentration: 3.3 μM; for inhibition at 10 µM: B16-F10, Compound concentration: 10 μM
Summary of the method: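 Attached B16F10 cells in 96-well plates were incubated with compound at 37° C for 72 h, followed by 10 μL CCK-8 reagent per well and a further 4 h incubation. A multi-well plate reader measured absorbance at 450 nm. Percent viability across replicates was calculated against DMSO vehicle-treated cells.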

[6] = tested on: A431 (epidermoid carcinoma); assay: Antiproliferative activity (CCK-8 cell viability), A431; conditions: Homo sapiens, 72 h, read-out: Antiproliferative activity in cancerous cells, A431 (inhibition of cell growth); for inhibition at 3.3 µM: A-431, Compound concentration: 3.3 μM; for inhibition at 10 µM: A-431, Compound concentration: 10 μM
Summary of the method: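 Cell viability of compound-treated A431 cells was measured with a Cell Counting Kit-8. Each well received 10 μL of CCK-8 after 72 h of compound exposure, followed by 4 h incubation at 37° C. and a 450 nm plate-reader measurement. Percent viability was calculated relative to DMSO controls across replicates.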

[7] = tested on: A549 (lung adenocarcinoma); assay: Antiproliferative activity (CCK-8 cell viability), A549; conditions: Homo sapiens, 72 h; for inhibition at 3.3 µM: Compound concentration: 3.3 μM; for inhibition at 3.3 µM / inhibition at 10 µM: read-out: Antiproliferative activity in cancerous cells, A549 (inhibition of cell growth); for inhibition at 10 µM: Compound concentration: 10 μM
Summary of the method: as §1

[8] = tested on: HeLa (cervical cancer); assay: Antiproliferative activity (CCK-8 cell viability), HeLa; conditions: Homo sapiens, 72 h; for inhibition at 3.3 µM: Compound concentration: 3.3 μM; for inhibition at 3.3 µM / inhibition at 10 µM: read-out: Antiproliferative activity in cancerous cells, HELA (inhibition of cell growth); for inhibition at 10 µM: Compound concentration: 10 μM
Summary of the method: as §1

SMILES	inhibition at 10 µM [1] [%]	inhibition at 3.3 µM [2] [%]	inhibition at 10 µM [2] [%]	inhibition at 3.3 µM [3] [%]	inhibition at 10 µM [3] [%]	inhibition at 3.3 µM [4] [%]	inhibition at 10 µM [4] [%]	inhibition at 3.3 µM [5] [%]	inhibition at 10 µM [5] [%]	inhibition at 3.3 µM [6] [%]	inhibition at 10 µM [6] [%]	inhibition at 3.3 µM [7] [%]	inhibition at 10 µM [7] [%]	inhibition at 30 µM ([7]; Compound concentration: 30 μM, read-out: Antiproliferative activity in cancerous cells, A549) [%]	inhibition at 3.3 µM [8] [%]	inhibition at 10 µM [8] [%]	inhibition at 30 µM ([8]; Compound concentration: 30 μM, read-out: Antiproliferative activity in cancerous cells, HELA) [%]
CC1=C(CC(=O)O)c2ccc(F)cc2/C1=C\c1ccc(COc2ccccc2)cc1 [B1, (Z)-2-(6-Fluoro-2-methyl-1-(4-(phenoxymethyl)benzylidene)-1H-inden-3-yl)-acetic acid]	< 30	< 30	≥ 50	< 30	≥ 50	≥ 50	≥ 50	≥ 50	≥ 50	30 to 50	30 to 50	< 30	< 30	30 to 50	< 30	< 30	30 to 50
CC1=C(CCO)c2cc(F)ccc2/C1=C\c1cccc(Oc2ccccc2)c1 [A202, (Z)-2-(5-Fluoro-2-methyl-1-(3-phenoxybenzylidene)-1H-inden-3-yl)ethan-1-ol]	< 30																
O=C(O)CC1=C(Cc2ccccc2)/C(=C/c2ccc(COc3ccccc3)cc2)c2ccc(F)cc21 [A1, (Z)-2-(2-Benzyl-5-fluoro-1-(4-(phenoxymethyl)benzylidene)-1H-inden-3-yl)-acetic acid]	> 80	≥ 50	≥ 50	30 to 50	≥ 50	≥ 50	≥ 50	30 to 50	≥ 50	30 to 50	≥ 50	< 30	30 to 50		≥ 50	≥ 50	
CC1=C(Cc2noc(=O)[nH]2)c2cc(F)ccc2/C1=C\c1ccc(Oc2ccc(F)cc2)cc1 [C26, (Z)-3-((5-Fluoro-1-(4-(4-fluorophenoxy)benzylidene)-2-methyl-1H-inden-3-yl)-methyl)-1,2,4-oxadiazol-5(4H)-one]	> 80	≥ 50	≥ 50	< 30	≥ 50	< 30	≥ 50	< 30	≥ 50	< 30	≥ 50	30 to 50	≥ 50		< 30	≥ 50	
CC1=C(CCO)c2cc(F)ccc2/C1=C\c1ccc(Oc2ccc(F)cc2)cc1 [A201, (Z)-2-(5-Fluoro-1-(4-(4-fluorophenoxy)benzylidene)-2-methyl-1H-inden-3-yl)-ethan-1-ol]	< 30	30 to 50	≥ 50	≥ 50	≥ 50	≥ 50	≥ 50	< 30	≥ 50	≥ 50	≥ 50	30 to 50	≥ 50		30 to 50	≥ 50	
CC1=C(CC(=O)O)c2cc(F)ccc2/C1=C\c1ccc(COc2ccc(F)cc2)cc1F [B23, (Z)-2-(5-Fluoro-1-(2-fluoro-4-((4-fluorophenoxy)methyl)benzylidene)-2-methyl-1H-inden-3-yl)acetic acid]	50 to 80																
CC1=C(C=CC(=O)O)c2cc(F)ccc2/C1=C\c1ccc(Oc2ccc(F)cc2)cc1 [C33, 3-(5-Fluoro-1-((Z)-4-(4-fluorophenoxy)benzylidene)-2-methyl-1H-inden-3-yl)-acrylic acid]	> 80																
CC1=C(CCC(=O)O)c2ccccc2/C1=C\c1cccc(Oc2ccccc2)c1 [C24, (Z)-3-(2-Methyl-1-(3-phenoxybenzylidene)-1H-inden-3-yl)propanoic acid]	< 30																
COc1cc(COc2ccc(F)cc2)ccc1/C=C1/C(C)=C(CC(=O)O)c2cc(F)ccc21 [B25, (Z)-2-(5-Fluoro-1-(4-((4-fluorophenoxy)methyl)-2-methoxybenzylidene)-2-methyl-1H-inden-3-yl)acetic acid]	> 80																
CC1=C(C(C)C(=O)O)c2ccccc2/C1=C\c1ccc(C(C)C)cc1 (centres unmarked) [D3, (Z)-2-(1-(4-Isopropylbenzylidene)-2-methyl-1H-inden-3-yl)propanoic acid]	< 30																
